The values that follow come from US10912771B1, “Methods for the administration of certain VMAT2 inhibitors” (Neurocrine Biosciences, Inc., priority 2017, dated 2021).

Data set [1] can be described thus: Prolactin release, in vivo surrogate for dopaminergic modulation.
In data set [2] the target is T1, Serotonin 5-HT1A (Homo sapiens, UniProt P08908).
T1 sequence (P08908 1-422): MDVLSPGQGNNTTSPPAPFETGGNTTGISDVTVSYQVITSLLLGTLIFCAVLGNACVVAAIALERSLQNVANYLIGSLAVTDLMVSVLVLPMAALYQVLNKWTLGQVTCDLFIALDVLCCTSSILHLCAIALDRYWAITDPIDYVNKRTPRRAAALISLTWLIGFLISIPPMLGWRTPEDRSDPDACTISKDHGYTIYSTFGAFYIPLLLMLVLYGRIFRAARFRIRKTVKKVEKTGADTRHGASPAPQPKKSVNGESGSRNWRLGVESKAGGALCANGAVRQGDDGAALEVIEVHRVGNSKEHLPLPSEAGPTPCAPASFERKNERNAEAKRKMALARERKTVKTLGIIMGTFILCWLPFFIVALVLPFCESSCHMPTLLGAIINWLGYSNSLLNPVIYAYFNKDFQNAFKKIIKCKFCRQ
The data set is described as follows: Cerep screen, Serotonin 5-HT1A. Conditions: 1 or 10 μM final concentration; n=2.

A short description of data set [3]: Phase 1 open-label one-sequence crossover drug-interaction study: plasma pharmacokinetics of NBI-98854 and metabolites with and without rifampin. To be noted: for half-life: read-out: Mean t1/2 (converted); for AUC(0-t) / Tlag / t1/2: Mean (SD). The class given is in vivo, human. The procedure:
Subjects received a single dose of 80 mg valbenazine tosylate on Days 1 and 11 between 0800 and 1000 hours. In addition, subjects received 600 mg rifampin (300 mg×2 capsules) once daily on Days 5 (after collection of the 96-hour PK sample) through 14 between 0830 and 1030 hours. Subjects were required to fast overnight before receiving the study drugs (valbenazine tosylate and rifampin). Subjects were discharged from the study center on Day 15 (final study day or upon early termination) after all safety evaluations and study assessments had been completed.
Safety was assessed throughout the study.
NBI-98854 40 mg capsules were administered orally. The dose of NBI-98854 was based on ditosylate salt (dose expressed as free base). Subjects received a single dose of NBI-98854 80 mg (as two 40 mg capsules) twice during the study, on Days 1 and 11.
Rifampin 300 mg capsules were administered orally. Subjects received a single dose of rifampin 600 mg (as two 300 mg capsules) on Days 5 (after collection of the 96 hour NBI-98854 PK sample) through 14 between 0830 and 1030 hours.
The following plasma PK parameters were calculated only for NBI-98854: • Apparent systemic clearance after oral administration (CL/F) • Apparent volume of distribution during the terminal phase after oral administration (Vz/F)
The last significant figure was rounded up if the digit to the right of it was >5, and was rounded down if the digit to the right of it was […].
The last significant figure was rounded up if the digit to the right of it was ≥5, and was rounded down if the digit to the right of it was ≤4.
An analysis of variance (ANOVA) model was used to compare AUC0-∞ and Cmax for NBI-98854 administered with rifampin (“test”) versus AUC0-∞ and Cmax for NBI-98854 alone (“reference”). The PK parameters for metabolites of NBI-98854 and rifampin were also evaluated. Safety data were summarized using descriptive statistics.

In data set [4] the test system is CYP enzymes. To be noted: human.
For data set [5], the target named is T2, human VMAT1 transporter (Homo sapiens, UniProt P54219).
T2 construct: expressed in transfected cells
T2 sequence (P54219 1-525): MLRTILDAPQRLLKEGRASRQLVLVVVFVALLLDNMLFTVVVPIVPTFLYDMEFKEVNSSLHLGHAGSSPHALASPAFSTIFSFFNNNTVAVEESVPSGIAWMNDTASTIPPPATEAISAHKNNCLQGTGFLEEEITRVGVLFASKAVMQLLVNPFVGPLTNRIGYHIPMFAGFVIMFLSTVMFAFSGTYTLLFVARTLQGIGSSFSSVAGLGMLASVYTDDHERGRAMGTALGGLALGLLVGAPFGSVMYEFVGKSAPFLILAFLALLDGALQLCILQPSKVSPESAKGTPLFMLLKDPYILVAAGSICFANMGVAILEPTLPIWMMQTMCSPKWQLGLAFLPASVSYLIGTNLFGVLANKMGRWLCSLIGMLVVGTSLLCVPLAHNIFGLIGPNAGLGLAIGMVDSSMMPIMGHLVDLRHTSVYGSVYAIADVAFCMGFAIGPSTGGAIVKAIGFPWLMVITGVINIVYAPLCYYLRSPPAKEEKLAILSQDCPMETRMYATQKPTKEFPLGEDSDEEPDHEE
The data set is described as follows: Uptake in cells expressing VMAT1. The class given is cell-based. To be noted: TBZ, VBZ and metabolites at concentrations up to 10 μM, listed as R,R,R-DHTBZ.

Data set [6] concerns more than 80 targets (GPCRs, cell-surface monoamine transporters, ion channels including HERG). Briefly: Cerep multi-target activity screen. Conditions: receptors, monoamine transporters, and ion channels.
Data set [7] deals with Serotonin 5-HT7 (Homo sapiens, UniProt P34969). The data set is described as follows: Cerep screen, Serotonin 5-HT7. To be noted: 1 or 10 μM final concentration; n=2.
Data set [8] in a line: Ptosis, in vivo surrogate measure of pharmacological effect.
Setting [9] is: both sexes, human, plasma, oral, 80 mg.
The mark [10] stands for this setting: plasma metabolite NBI-98782, NBI-98854 80 mg + rifampin 600 mg, N = 11.
[11] abbreviates: plasma metabolite NBI-98782, NBI-98854 80 mg alone, N = 11.

Broadly, the AUC(0-inf) is the area under the concentration-time curve extrapolated to infinity. One may read the Cmax as the maximum level reached in the sampled fluid or tissue. By MRT is commonly meant the average time that molecules of a dose stay in the body.

“Also recorded” adds a separate entry of the source. Where two headings read alike, the source gives them in different places.

Sequence of Serotonin 5-HT7 (P34969 whole entry): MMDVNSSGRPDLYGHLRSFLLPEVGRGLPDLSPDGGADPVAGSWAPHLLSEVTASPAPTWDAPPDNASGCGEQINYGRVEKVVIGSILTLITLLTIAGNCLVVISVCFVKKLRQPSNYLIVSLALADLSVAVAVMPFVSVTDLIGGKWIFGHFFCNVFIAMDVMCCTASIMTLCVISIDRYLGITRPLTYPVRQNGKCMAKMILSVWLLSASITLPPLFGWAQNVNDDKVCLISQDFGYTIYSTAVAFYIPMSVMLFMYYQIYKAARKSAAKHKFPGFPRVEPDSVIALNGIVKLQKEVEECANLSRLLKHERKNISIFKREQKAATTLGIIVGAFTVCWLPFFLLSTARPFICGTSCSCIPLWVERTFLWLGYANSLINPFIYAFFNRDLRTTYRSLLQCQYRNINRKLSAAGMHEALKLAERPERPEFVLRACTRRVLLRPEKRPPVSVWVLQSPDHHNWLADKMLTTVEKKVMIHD

Turning to `COc1cc2c(cc1OC)[C@H]1C[C@@H](O)[C@H](CC(C)C)CN1CC2` [NBI-98782, (2R, 3R,11bR)-3-isobutyl-9,10-dimethoxy-1,3,4,6,7,11b-hexahydro-2H-pyrido[2,1-a]isoquinolin-2-ol], the “increase in serum prolactin levels” value in data set [1] is “induced a similar increase in serum prolactin levels as TBZ”. The “percent of control specific binding, Serotonin 5-HT1A” value in data set [2] amounted to 17%. The half-life in data set [3] (both sexes, human, oral, 80 mg, plasma analyte, NBI-98854 alone) is 19 h; in data set [3] (both sexes, human, oral, plasma analyte, NBI-98854 administered with rifampin), 12 h. The Tmax is 4 h in data set [3] (both sexes, human, oral, 80 mg, plasma analyte, NBI-98854 alone, read-out: Median tmax); 3 h in data set [3] (both sexes, human, oral, plasma analyte, NBI-98854 plus rifampin, read-out: Median tmax); 3.0 (0.50, 4.0) hr in data set [3] (plasma metabolite NBI-98782, NBI-98854 80 mg + rifampin 600 mg, N = 11, Median (min, max)); 4.0 (0.52, 18) hr in data set [3] (plasma metabolite NBI-98782, NBI-98854 80 mg alone, N = 11, Median (min, max)). In addition, in data set [3] (setting [9]), the AUC(0-inf) was determined as 0.689 µg·h/mL. Besides, the Cmax in data set [3] (setting [9]) turned out to be 0.0215 µg/mL. For the same compound, in data set [3] (setting [9]), the MRT stood at 28 h. Besides, the AUC(0-t) was determined as 0.364 µg·h/mL in data set [3] (both sexes, human, plasma, oral, 80 mg, plasma metabolite NBI-98782, NBI-98854 80 mg alone, N = 11, read-out: AUC0-24); 0.665 µg·h/mL in data set [3] (both sexes, human, plasma, oral, 80 mg, plasma metabolite NBI-98782, NBI-98854 80 mg alone, N = 11, read-out: AUC0-tlast); 0.115 µg·h/mL in data set [3] (both sexes, human, plasma, oral, plasma metabolite NBI-98782, NBI-98854 80 mg + rifampin 600 mg, N = 11, read-out: AUC0-24); 0.153 µg·h/mL in data set [3] (both sexes, human, plasma, oral, plasma metabolite NBI-98782, NBI-98854 80 mg + rifampin 600 mg, N = 11, read-out: AUC0-tlast). Further, the results for the Tlag in data set [3] (setting [10]) and in data set [3] (setting [11]) were 0.23 (0.075) hr and 0.25 (0.16) hr, respectively. In addition, the results for the t1/2 in data set [3] (setting [10]) and in data set [3] (setting [11]) were 12 (1.7) hr and 19 (2.3) hr, respectively. Also, the “enzymes involved in oxidative metabolism” value in data set [4] is recorded as “mediated primarily by CYP2D6 with contribution from CYP3A4/5”. In data set [5], the “inhibition of uptake through VMAT1” value is listed as “no significant inhibitory activity; also recorded: no significant effect”. Moreover, the “affinity for more than 80 binding sites” value in data set [6] is listed as “little to no affinity”. In addition, the “percent of control specific binding, Serotonin 5-HT7” value in data set [7] is 3%. Moreover, the induction of ptosis result in data set [8] is on record as “induced ptosis in an equivalent manner”.
